According to paper PMC7580834, “Inhibition mechanism of naphthylphenylamine derivatives acting on the CDC25B dual phosphatase and analysis of the molecular processes involved in the high cytotoxicity exerted by one selected derivative in melanoma cells” (Journal of Enzyme Inhibition and Medicinal Chemistry, 2020):

Experiments:
OMFP-bound CDC25B-C473S [1] = target: T1, OMFP-bound CDC25B-C473S (Homo sapiens, UniProt P30305, C487S); test: Intrinsic fluorescence quenching of CDC25B-C473S in the presence of 5 µM OMFP (Stern-Volmer); type: binding; details: reciprocal of KSV; presence of 5 µM OMFP; read-out: K′D of the complex, OMFP-bound CDC25B-C473S•inhibitor
T1 sequence (P30305 370-580 C487S): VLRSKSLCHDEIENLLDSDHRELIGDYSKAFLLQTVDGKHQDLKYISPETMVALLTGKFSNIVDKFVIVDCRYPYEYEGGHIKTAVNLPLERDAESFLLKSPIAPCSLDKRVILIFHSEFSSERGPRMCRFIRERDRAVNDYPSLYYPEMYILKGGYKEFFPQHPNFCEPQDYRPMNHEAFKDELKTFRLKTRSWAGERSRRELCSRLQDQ
Source text: (§1) The mutant form of CDC25B, carrying the C473S replacement (CDC25B-C473S), was obtained through site-directed mutagenesis of the CDC25B catalytic segment cloned in pET28a-CDC25B-cd. To this aim, the QuikChange site-directed mutagenesis kit (Stratagene, La Jolla, CA, USA) and the forward and reverse primers for C473S replacement (5′d-[…]-3′ and 5′d-[…]-3′) were used. Positive clones were obtained, and the nucleotide sequencing of the mutagenised segment excluded the presence of undesired mutations. The new vector was called pET28a-CDC25B-C473S-cd. The expression of the new vector and the purification of the recombinant form of CDC25B-C473S catalytic domain were carried out as previously reported for wild-type CDC25B catalytic domain[18], and similar yields were obtained. As expected, the mutant enzyme was unable to hydrolyse the synthetic substrate OMFP, when its activity was checked with the fluorimetric assay method previously described.
(§2) Fluorescence spectra were recorded at 20 °C using a computer-assisted Cary Eclipse spectrofluorimeter (Varian, Palo Alto, CA, USA) equipped with an electronic temperature controller. The excitation wavelength was set at 280 nm and the excitation and emission slits were set at 10 and 20 nm, respectively. A 500 µL final volume of a 0.2 µM solution of CDC25B or CDC25B-C473S dissolved in 20 mM Tris•HCl, pH 7.8, 0.5 mM TCEP was directly prepared in the fluorimetric cuvette in the absence or in the presence of OMFP and/or some NPA derivatives. Serial pre-dilutions of the NPA derivatives or OMFP at increasing concentration were prepared in DMSO or methanol, respectively. Alongside, a convenient amount of the enzyme pre-dilution was prepared just before its usage for the experiment and stored on ice. When the combined effect of NPA derivative and OMFP was investigated, two enzyme pre-dilutions were prepared in the absence or in the presence of 5 µM OMFP. In order to evaluate the specific effect produced by any addition of solvent/ligand on the intrinsic fluorescence of the enzyme, 495 µL of the enzyme pre-dilution were placed in the fluorimetric cuvette and the relative spectrum was recorded; after the addition of 5 µL of each pre-dilution of solvent/ligand and fast mixing, the spectrum was recorded again. This procedure, repeated for each experimental point, allowed a normalisation of the specific effects produced by solvent/ligands. Furthermore, a correction was also applied for the little inner-filter effect due to the absorbance at 280 nm of the NPA derivative used at different concentrations; on the other hand, no correction was necessary for OMFP. All spectra, recorded at a scan speed of 120 nm/min, were normalised and corrected.

OMFP-bound CDC25B-C473S [2] = test: as above; type: binding
Source text: as §1, §2

A2058 cells = test: Western blotting of total cell extracts (CDC25A, -B, -C, p53, pAkt); type: cell-based, human; details: 10 µM
Method: (§3) To obtain the total protein extract, cells were seeded into 6-well-plates (3 × 10^5 cells/plate) for 24 h at 37 °C and then treated with 4a or 0.5% (v/v) DMSO. After treatment, cells were harvested, washed with PBS, and then lysed in ice-cold modified radio immunoprecipitation assay (RIPA) buffer (50 mM Tris•HCl, pH 7.4, 150 mM NaCl, 1% Nonidet P-40, 0.25% sodium deoxycholate, 1 mM Na3VO4 and 1 mM NaF), supplemented with protease inhibitors and incubated for 30 min on ice. The supernatant, obtained after centrifugation at 13200 g for 30 min at 4 °C, constituted the total protein extract. Protein concentration was determined by the Bradford method, using bovine serum albumin (BSA) as standard. To obtain the cytosolic and mitochondrial fractions, cells were plated at a density of 2 × 10^6 cells/plate for 24 h at 37 °C. After the treatment with 4a or 0.5% (v/v) DMSO, cells were harvested, washed in PBS, and then resuspended in buffer A (5 mM Hepes, pH 7.4, 250 mM mannitol, 0.5 mM EGTA, 0.1% BSA), supplemented with protease inhibitors, and homogenised. The homogenate was centrifuged at 600 g for 5 min at 4 °C and the supernatant was then centrifuged at 10300 g for 10 min at 4 °C. The resulting supernatant represented the cytosolic fraction, whereas the pellet, constituting the mitochondrial fraction was resuspended in RIPA buffer. Protein concentration was determined as previously indicated. Equal amounts of total, cytosolic or mitocondrial protein extracts were used for Western blotting analysis. Briefly, protein samples were dissolved in SDS-reducing loading buffer, run on sodium dodecylsulfate polyacrylamide gel electrophoresis (SDS/PAGE), and then transferred to Immobilon P membrane (Millipore, Saint Louis, MO, USA). The filter was incubated with the specific primary antibody at 4 °C overnight and then with the secondary antibody at room temperature for 1 h. Membranes were then analysed by an enhanced chemiluminescence reaction using WesternBright ECL (Advansta, San Jose, CA, USA) according to manufacturer’s instructions; signals were visualised by autoradiography. The analysis of pAkt protein levels was performed as previously described. Briefly, filters were first incubated with the anti-pAkt primary antibody and then with the secondary antibody and membranes were analysed by an enhanced chemiluminescence reaction as previously indicated. The same filters were then stripped, using AbCam (Cambridge, UK) stripping solution, pH 2 (200 mM glycine, 3.5 mM SDS, 1% Tween-20) at 45 °C for 30 min, washed 3 times with PBS-Tween 0.1%, incubated with anti-Akt primary antibody and then with the relative secondary antibody. Signals were detected as previously specified.

A375 cells = test: as above; type: cell-based, human; details: 10 µM
Method: as §3

- Kd (OMFP-bound CDC25B-C473S [1]): 32 µM
- KSV (Stern-Volmer constant) (OMFP-bound CDC25B-C473S [2]; 0.2 µM CDC25B-C473S, in the presence of 5 µM OMFP): 0.031 µM⁻¹
- K′D/Ki ratio (OMFP-bound CDC25B-C473S [2]; K′D of OMFP-bound CDC25B-C473S•inhibitor over Ki): 3.8
Compound: CCOC(=O)c1cccc(Nc2cc(OC)cc3ccccc23)c1 [4a]
- p53 protein levels (A2058 cells; 16- and 24-h): clear and significant increase
- pAkt protein levels (A2058 cells; 30-min): significant and early decrease
- CDC25A, -B and -C protein levels (A2058 cells; essentially after 24- and 48-h): reduction of protein levels of all three forms
- p53 protein levels (A375 cells; 16- and 24-h): clear and significant increase
- pAkt protein levels (A375 cells; 30-min): significant and early decrease
- CDC25A, -B and -C protein levels (A375 cells; essentially after 24- and 48-h): reduction of protein levels of all three forms
